Test results: ChEMBL document CHEMBL2074070, “Circumvention of breast cancer resistance protein (BCRP)-mediated resistance to camptothecins in vitro using non-substrate drugs or the BCRP inhibitor GF120918” (Clin Cancer Res, 2001)

Experiments:
Type in all cases: functional, cell-based
[1] = target: T1, Broad substrate specificity ATP-binding cassette transporter ABCG2 (Homo sapiens, UniProt Q9UNQ0); experiment: TP_TRANSPORTER: increase in Topotecan intracellular accumulation (Topotecan: 1.9 uM, GF120918: 2 uM) in T8 cells
T1 sequence (Q9UNQ0 whole entry): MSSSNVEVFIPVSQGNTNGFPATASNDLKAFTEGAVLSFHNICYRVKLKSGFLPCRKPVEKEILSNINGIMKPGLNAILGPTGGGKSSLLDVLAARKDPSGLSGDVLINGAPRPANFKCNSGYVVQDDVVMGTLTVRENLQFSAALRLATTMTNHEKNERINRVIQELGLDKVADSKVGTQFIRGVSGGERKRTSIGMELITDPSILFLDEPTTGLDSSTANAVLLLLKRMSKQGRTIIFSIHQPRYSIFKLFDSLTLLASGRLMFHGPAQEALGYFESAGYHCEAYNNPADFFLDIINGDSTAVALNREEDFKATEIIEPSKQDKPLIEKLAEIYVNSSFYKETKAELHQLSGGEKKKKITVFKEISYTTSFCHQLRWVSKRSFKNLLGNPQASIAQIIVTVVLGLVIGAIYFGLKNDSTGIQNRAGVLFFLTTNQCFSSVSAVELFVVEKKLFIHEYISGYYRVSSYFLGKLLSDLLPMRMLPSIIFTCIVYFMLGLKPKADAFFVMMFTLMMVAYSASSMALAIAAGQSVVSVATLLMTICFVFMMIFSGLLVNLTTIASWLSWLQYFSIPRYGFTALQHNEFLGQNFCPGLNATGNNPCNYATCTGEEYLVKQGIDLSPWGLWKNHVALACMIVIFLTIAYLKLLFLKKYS

[2] = target: T1, Broad substrate specificity ATP-binding cassette transporter ABCG2; experiment: TP_TRANSPORTER: increase in Topotecan intracellular accumulation (Topotecan: 1.9 uM, GF120918: 2 uM) in MX3 cells
[3] = target: T1, Broad substrate specificity ATP-binding cassette transporter ABCG2; experiment: TP_TRANSPORTER: increase of cytotoxicity by GF120918 in MX3 cells
[4] = target: T1, Broad substrate specificity ATP-binding cassette transporter ABCG2; experiment: TP_TRANSPORTER: increase of cytotoxicity by GF120918 in T8 cells
[5] = target: T1, Broad substrate specificity ATP-binding cassette transporter ABCG2; experiment: TP_TRANSPORTER: increase in intracellular accumulation by GF120918 in T8 cell

## COc1cc2c(cc1OC)CN(CCc1ccc(NC(=O)c3cccc4c(=O)c5cccc(OC)c5[nH]c34)cc1)CC2.Cl [ELACRIDAR HYDROCHLORIDE]
[1]
  Activity: inhibitor [+]
[2]
  Activity: inhibitor [+]

## CC[C@@]1(O)C(=O)OCc2c1cc1n(c2=O)Cc2c-1nc1cc(F)c(C)c3c1c2[C@@H](N)CC3 [EXATECAN]
[3]
  Activity: substrate []
[4]
  Activity: substrate []

## CC[C@@]1(O)C(=O)OCc2c1cc1n(c2=O)Cc2cc3c(CN(C)C)c(O)ccc3nc2-1 [TOPOTECAN]
[5]
  Activity: substrate [+]
